Legend:
[1] = Extraction of stabilizer from polyester polyurethane refinish enamel film by refluxing toluene, GC (Example 75); details: 2% by weight on resin solids, film baked 30 minutes at 60° C., stored one month, refluxing toluene one hour
Protocol: A polyester polyurethane refinish enamel is prepared from a polyester resin (DESMOPHEN® 670A-80, Mobay) and a polyurethane resin (DESMODUR® N-75, Mobay) in a ratio of 1.0:1.1 equivalents, with 1% DABCO® T-12 […] as catalyst. The enamel is stabilized with 2% by weight, based on resin solids, of various hindered amine stabilizers. The stabilized enamel is spray applied to a thickness of 1.8-2.0 mils (0.0457-0.0508 mm) onto glass plates and baked for 30 minutes at 140° F. (60° C.). After storage for one month in an air-conditioned room, the films are removed from the glass plates and placed in a round-bottomed flask and then extracted with refluxing toluene for one hour. The films are then removed and the toluene is analyzed for any stabilizer extracted by gas chromatography.
If the stabilizer is chemically bonded to the polymer film, little if any of the stabilizer is extracted by the refluxing toluene.

[2] = Extraction of stabilizer from high solids thermoset acrylic enamel film by refluxing toluene, GC (Example 78); details: refluxing toluene one hour; for Percent Stabilizer Extracted: 1% by weight on resin solids, baked 30 minutes at 121° C., stored one week, GC; for extraction of stabilizer from the stabilized enamel: in words, thermoset acrylic enamel
Source text: A model high solids thermoset acrylic enamel based on a binder of 60% of a polymer comprising monomers such as 2-hydroxyethyl acrylate, butyl acrylate, butyl methacrylate, styrene and acrylic acid, and 40% of a melamine resin with an acid catalyst such as p-toluenesulfonic acid is formulated and stabilized with 1% by weight, based on resin solids, of a variety of hindered amine stabilizers.
This enamel is spray applied to a thickness of 1.8-2.0 mils (0.0457-0.0508 mm) onto glass plates and baked for 30 minutes at 250° F. (121° C.). After storage for one week in an air-conditioned room, the films are removed from the glass plates and placed in a round-bottomedflask and extracted with refluxing toluene for one hour. After one hour, the films are removed and the toluene extract is analyzed for extracted stabilizer by gas chromatography.

[3] = Hindered amine basicity (pKa); type: physicochemical; details: Table 1; N-substituted derivatives of 4-hydroxy-2,2,6,6-tetramethylpiperidine
Source text: There are clear advantages in using the hindered amine compounds having 1-hydrocarbyloxy substitution. In certain polymer systems, there is a definite advantage in using a less basic stabilizer. For example, the cure of acid-catalyzed thermoset melamine crosslinked automotive coatings systems can be severely retarded by an interaction between the acid catalyst and a basic hindered amine stabilizer.

Row | SMILES | Percent Stabilizer Extracted [1] [%] | Percent Stabilizer Extracted [2] [%] | pKa [3] | extraction of stabilizer from the stabilized enamel [2]
1 | CCCCCCCCON1C(C)(C)CC(OC(=O)CCCCCCCCC(=O)OC2CC(C)(C)N(OCCCCCCCC)C(C)(C)C2)CC1(C)C [HA 1, bis(1-octyloxy-2,2,6,6-tetramethylpiperidin-4-yl) sebacate, reference compound] | 100 | 100 |  | 
2 | CC1(C)CC(O)CC(C)(C)N1 [N--H, 4-hydroxy-2,2,6,6-tetramethylpiperidine] |  |  | 10.0 | 
3 | CCCCCCCCON1C(C)(C)CC(N(CCCC)c2nc(NCCO)nc(N(CCCC)C3CC(C)(C)N(OCCCCCCCC)C(C)(C)C3)n2)CC1(C)C [Example 2, 2-[(2-Hydroxyethyl)amino]-4,6-bis[N-(1-octyloxy-2,2,6,6-tetramethylpiperidin-4-yl)butylamino]-1,3,5-triazine] | 0 | 0 |  | resist extraction from the stabilized enamel
4 | CCCCCCCCON1C(C)(C)CC(N(CCCC)c2nc(NCCCCCC(=O)O)nc(N(CCCC)C3CC(C)(C)N(OCCCCCCCC)C(C)(C)C3)n2)CC1(C)C [Example 16, N-{4,6-Bis[(1-octyloxy-2,2,6,6-tetramethylpiperidin-4-yl)butylamino]-1,3,5-triazin-2-yl}-6-aminohexanoic acid] | 21 |  |  | 
5 | CCCCN(c1nc(NCCCCCC(=O)O)nc(N(CCCC)C2CC(C)(C)N(OC3CCCCC3)C(C)(C)C2)n1)C1CC(C)(C)N(OC2CCCCC2)C(C)(C)C1 [Example 15, N-{4,6-Bis[(1-cyclohexyloxy-2,2,6,6-tetramethylpiperidin-4-yl)butylamino]-1,3,5-triazin-2-yl}-6-aminohexanoic acid] | 23 |  |  | 
6 | CCCCN(c1nc(NCCO)nc(N(CCCC)C2CC(C)(C)N(OC3CCCCC3)C(C)(C)C2)n1)C1CC(C)(C)N(OC2CCCCC2)C(C)(C)C1 [Example 1, 2-[(2-Hydroxyethyl)amino]-4,6-bis[N-(1-cyclohexyloxy-2,2,6,6-tetramethylpiperidin-4-yl)-butylamino]-1,3,5-triazine] | 0 | 0 |  | resist extraction from the stabilized enamel
7 | CN1C(C)(C)CC(O)CC1(C)C [N--Me] |  |  | 10.0 | 
8 | CON1C(C)(C)CC(O)CC1(C)C [N--OMe] |  |  | 4.8 | 

Source: patent US5216156A, “Non-migrating 1-hydrocarbyloxy-2,2,6,6-tetramethylpiperidine 1,3,5-triazine derivatives” (Ciba-Geigy Corporation, priority 1992, dated 1993)
